For 5 compounds, GI50 and TGI results are on record in PubChem BioAssay (NCI).

Among the test systems are SK-MEL-5 melanoma; SN12C renal; MALME-3M melanoma; HCC-2998 colon; UO-31 renal; SF-295 CNS; TK-10 renal; COLO 205 colon; HCT-15 colon; IGROV1 ovarian.
What all share (test): inhibition of tumour cell growth, NCI panel, 48 h

“And” between values parts separate entries of the source, which are not always exact repeats. Equal entries are not always repeated.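 Step 1: Grow cells in 96-well plates. Step 2: Expose to compound for 48 hours at 5 concentrations. Step 3: Interpolate endpoints linearly; if unreached, use highest concentration. GI50 marks 50% less growth. TGI marks complete inhibition of growth.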 Some results are limits rather than exact numbers.

Turning to `COc1cc2c[n+](C)c3c4ccccc4ccc3c2cc1OC` (tested in a mixture with another compound), the GI50 was 7.6 µM in the assay on SK-MEL-5 melanoma; 1070 nM with SN12C renal; 1280 nM with MALME-3M melanoma; 6.36 µM in the assay on HCC-2998 colon; 1460 nM in the assay with COLO 205 colon; 2750 nM with IGROV1 ovarian. For the same compound, the TGI in the assay on SK-MEL-5 melanoma was 29 µM; in the assay with SN12C renal it was 5.58 µM and 17.7 µM; in the assay with MALME-3M melanoma, 3.25 µM and 14 µM; in the assay with HCC-2998 colon, 21.3 µM; in the assay with UO-31 renal it was more than 100 µM; in the assay with SF-295 CNS, 71.5 µM. Also, the TGI is 87.3 µM in the assay on TK-10 renal; 5.02 µM and 14 µM in the assay with COLO 205 colon; more than 100 µM with HCT-15 colon; 44.1 µM in the assay with IGROV1 ovarian.

For the compound `O=C(CC(=O)N1N=C(N2c3ccccc3Sc3ccccc32)CC1c1ccccc1)Nc1ccc(Cl)cc1` (stereo unspecified), the TGI in the assay with SK-MEL-5 melanoma, in the assay on SN12C renal, in the assay on MALME-3M melanoma, with HCC-2998 colon, in the assay on UO-31 renal and in the assay on SF-295 CNS was more than 100 µM in each case. The TGI in the assay with TK-10 renal, with COLO 205 colon, with HCT-15 colon and with IGROV1 ovarian was more than 100 µM in each case.

Turning to `COc1ccc2c(c1)C(=O)/C(=C/c1ncc([N+](=O)[O-])n1C)O2`, the GI50 with SK-MEL-5 melanoma was 0.207 µM; in the assay with SN12C renal, 292 nM; with MALME-3M melanoma it was 288 nM; in the assay with HCC-2998 colon, 1.54 µM; in the assay with UO-31 renal, 494 nM; in the assay on SF-295 CNS, 1500 nM. Further, the GI50 in the assay with TK-10 renal was 1380 nM; in the assay with COLO 205 colon, 1070 nM; with HCT-15 colon it was 221 nM; with IGROV1 ovarian it was 985 nM. Moreover, the TGI in the assay with SK-MEL-5 melanoma is 0.552 µM; in the assay with SN12C renal, 1.3 µM; in the assay on MALME-3M melanoma, 1.07 µM; in the assay with HCC-2998 colon, 4.59 µM; in the assay with UO-31 renal, 2.53 µM; in the assay with SF-295 CNS, 3.88 µM. Also, the TGI with TK-10 renal stood at 13.8 µM; in the assay with COLO 205 colon, 3.9 µM; in the assay on HCT-15 colon, 0.629 µM; in the assay on IGROV1 ovarian it was 6.91 µM.

In the case of `CCSC1=C(C)N(C=NC(C)(C)C)CC1`, the TGI in the assay on SK-MEL-5 melanoma, in the assay on SN12C renal, with MALME-3M melanoma, in the assay with HCC-2998 colon, in the assay on UO-31 renal and in the assay on SF-295 CNS was more than 100 µM in each case. Besides, the TGI in the assay with TK-10 renal, with COLO 205 colon, with HCT-15 colon and in the assay on IGROV1 ovarian was more than 100 µM in each case.

Consider `O=C1c2c(n(Cc3ccccc3)c(=O)n2Cc2ccccc2)C(=O)N1Cc1ccccc1`, for which the TGI in the assay on SK-MEL-5 melanoma, with SN12C renal, in the assay with MALME-3M melanoma, in the assay on HCC-2998 colon, with UO-31 renal and with SF-295 CNS was more than 100 µM each time. Also, the TGI with TK-10 renal, in the assay with COLO 205 colon, in the assay with HCT-15 colon and in the assay on IGROV1 ovarian was more than 100 µM in each case.
